Results as given in patent publication US20220354845A1, “METHODS FOR ENHANCING DNA DAMAGE AND APOPTOSIS OF LEUKEMIC CELLS” (Thomas Jefferson University, priority 2019, published 2022).

Columns and labels:
[1] = test system: Y641 and A677 mutants of EZH2; details: cited from earlier work
THP-1 cells [2] = experiment: DNA damage by γ-H2A.X foci and western blot in THP-1 cells; type: cell-based, human; details: for number of γ-H2A.X foci compared to untreated cells: single agent, Bleomycin 5 μM, Doxorubicin 0.1 μM, Etoposide 0.1 μM
Description: DNA damage evaluation by analysis of γ-H2A.X foci. […] Lower panels show γ-H2A.X signals only. […] In FIG. 6C, DNA damage was assessed by γ-H2A.X western blot in drug-treated THP-1 cell extracts.
(§1) FIG. 10B is a series of images showing immunofluorescence microscopy of γ-H2A.X foci in untreated or drug-treated (Doxorubicin 0.1 μM, palbociclib 500 nM) THP-1 cells. γ-H2A.X light gray, DAPI dark gray. In FIG. 10C, apoptosis was analyzed by Caspase 3/7 activity by flow cytometry.
The role of chromatin structure in cytotoxic agent-induced DNA damage was also assessed by investigating the formation of γ-H2A.X foci by confocal microscopy.

[3] = test system: primary CD34+ AML samples; experiment: Apoptosis by Caspase-3/7 activity (flow cytometry) in primary CD34+ AML samples; type: cell-based, human; details: CD34+ AML cells, co-treatment GSK-126 (0.5 μM) and Doxorubicin (0.1 μM), 48 hours
Description: (§2) FIGS. 9A-9B illustrate apoptosis of drug-treated cells. THP-1 (FIG. 9A) and primary CD34+ AML samples (FIG. 9B) were left untreated (CNTR), treated with Doxorubicin alone (0.1 μM), Etoposide alone (0.5 μM) or in combination with the EZH2 inhibitor GSK-126 (0.5 μM) for 48 hours. Apoptosis was analyzed by Caspase-3/7 activity by flow cytometry.

[4] = test system: THP-1 and human CD34+ primary AML cells; experiment: DNA content analysis and myeloid marker flow cytometry of AML cells; type: cell-based; details: GSK126 alone
THP-1 cells [5] = experiment: RAD51 foci formation in Doxorubicin-treated THP-1 cells; type: cell-based, human; details: GSK126 5 μM, Doxorubicin 0.1 μM; 12, 24, 36, 72 hrs
Description: FIG. 7 illustrates the kinetics of RAD51 foci formation in Doxorubicin-treated THP-1 cells. […] RAD51 foci were detected by immunofluorescence in the pre-washed cultures (12 hrs), and at 24, 36, and 72 hrs post Doxorubicin washing.

THP-1 cells [6] = experiment: ChIP-seq of γ-H2A.X in THP-1 cells; type: cell-based, human; details: THP-1 cells co-treated with GSK126
Description: (§3) Box plot of ChIP-seq read density is shown. FIG. 14B is an example showing the COL93A locus.
Without wishing to be bound by theory, a more relaxed chromatin structure may be more susceptible to DNA damage.

primary CD34+ AML cells = experiment: γ-H2A.X foci and comet assay in primary CD34+ AML cells; type: cell-based, human; details: co-treated with GSK126 (5 μM) and Doxorubicin (0.3 or 0.1 μM), 24 h
Description: FIGS. 8A-8D illustrate that inhibition of EZH2 enhances DNA damage as assessed by γ-H2A.X foci and comet assay in primary CD34+ AML cells. […] Immunofluorescence microscopy of γ-H2A.X foci (representative cells). γ-H2A.X light gray, DAPI, dark gray. Lower panels show γ-H2A.X signals only. […] Immunofluorescence microscopy of γ-H2A.X foci (representative cells). γ-H2A.X light gray, DAPI, dark gray. Lower panels show γ-H2A.X signals only.

THP-1 cells [7] = experiment: Apoptosis by Caspase-3/7 activity (flow cytometry) in THP-1 cells; type: cell-based, human
Description: as §2
as §1, with “FIGS. 10A-10C illustrate that treatment with the CDK4/CDK6 inhibitor palbociclib suppresses Doxorubicin-induced DNA damage. […] FIG. 10B” for “FIG. 10B”
THP-1 cells were treated with Palbociclib (500 nM) for 24 hours to induce a G1-arrest. […] Anova ***p<0.001; (Right) Apoptosis analyzed by Caspase 3/7 activity by flow cytometry. Mean+/−SEM. Anova; *p<0.1 **p<0.01
To assess whether cell cycle synchronization through pre-conditioning with a CDK4/6 inhibitor prior to treatment, a subsequent study was performed in which THP-1 cells were treated with Palbociclib (500 nM) for 24 hours to induce a G1-arrest. […] (FIG. 15, Right) Apoptosis of treated cells was also analyzed by Caspase 3/7 activity by flow cytometry.

THP-1 cells [8] = experiment: Comet assay in drug-treated THP-1 cells; type: cell-based, human; details: co-treatment with GSK126 and Doxorubicin
H3K27me3 in THP-1 cells = experiment: H3K27me3 levels in THP-1 cells (CAA, western blot, ChIP-seq); type: cell-based, human
Description: (§4) FIGS. 4A-4B illustrate the ability of EZH2 inhibitor to affect H3K27me3 binding. […] Cells were labeled with EdU for 15 minutes. CAA was performed with H3K27me3 antibody. Following PLA, cells were immunostained for EdU.
as §3
(§5) Chromatin assembly assay: Cells were grown on chamber slides, pulse-labeled with 5 μM EdU and fixed at room temperature with 4% formaldehyde in PBS for 15 min, washed with PBS, and permeabilized with 0.3% Triton for 15 min. Cells were subjected to Click-iT reaction with biotin-azide for 30 min. The PLA reactions (Olink) between the anti-biotin antibody and antibodies to other proteins were performed as described by Olink. Following PLA, cells were immunostained with anti-biotin Alexa Fluor 488 antibody to control the specificity of CAA. The results of CAA experiments shown in FIG. 1A were quantified by counting the number of PLA signals per EdU-labeled nuclei in 50 cells of each of the three independent experiments. The nature of the results in the rest of the figures alleviated the need to quantify the results of these assays.
(§6) Since DNA-damaging agents (eg., Doxorubicin) preferentially induce double strand breaks (DSBs) in more de-condensed regions of chromatin, some epigenetic inhibitors may render leukemic cells more susceptible to DNA damage. […]

[9] = test system: H3K27me3 in AML primary cells; experiment: H3K27me3 on nascent DNA of AML primary cells (CAA, western blot); type: cell-based, human; details: GSK126 for 12 hours
Description: as §4, §5, §6

[10] = test system: primary ASXL1-mutated AML sample; experiment: γ-H2A.X foci in primary ASXL1-mutated AML sample; type: cell-based, human; details: CD34+ cells with frameshift ASXL1 mutation (G646fs*12); co-treatment with GSK126 (5 nM), 24 hours
Description: FIGS. 13A-13B illustrate accumulation of H3K27me3 on nascent DNA of a human primary ASXL1 mutated AML sample. In FIG. 13A, DNA was labeled with EdU for 15 minutes. Following conjugation with biotin, CAA was performed between nascent DNA (biotin) and H3K27me3. PLA (bright gray), Edu (biotin; light gray), DAPI; dark gray). Lower panels show PLA signals only. […] DNA Damage evaluation by analysis of γ-H2A.X foci. […] Immunofluorescence microscopy of γ-H2A.X foci (representative cells). γ-H2A.X light gray, DAPI, dark gray. Lower panels show γ-H2A.X signals only.
Mutations of ASXL1 are more frequent than EZH2 mutations and may cause a decrease in global H3K27me3 level and in the accumulation of this marker on nascent DNA. The H3K27me3 marker was not detected on Edu-labeled, nascent DNA of CD34+ […] cells carrying a frameshift ASXL1 mutation causing a premature termination (G646fs*12) in ˜50% of the cells, favoring a state of ‘open’ chromatin (FIGS. 13A and 13B).

[11] = test system: primary blasts from AML patient #22324; experiment: CAA (PLA) between EdU-labeled DNA and ATRIP at sites of DNA damage; type: cell-based, human; details: GSK343 12 hours, then 10 μM Bleomycin 1 hr
Description: Cells were labeled with EdU for 10 minutes and treated with 10 μM Bleomycin (Bleo) for 1 hr. CAA (PLA, dark) was performed between EdU and ATRIP protein. Chromatin assembly assay: Cells were grown on chamber slides, pulse-labeled with 5 μM EdU and fixed at room temperature with 4% formaldehyde in PBS for 15 min, washed with PBS, and permeabilized with 0.3% Triton for 15 min. Cells were subjected to Click-iT reaction with biotin-azide for 30 min. The PLA reactions (Olink) between the anti-biotin antibody and antibodies to other proteins were performed as described by Olink. Following PLA, cells were immunostained with anti-biotin Alexa Fluor 488 antibody to control the specificity of CAA. The results of CAA experiments shown in FIG. 1A were quantified by counting the number of PLA signals per EdU-labeled nuclei in 50 cells of each of the three independent experiments.

Cc1cc(C)c(CNC(=O)c2cc(-c3ccc(CN4CCOCC4)cc3)cc3c2cnn3C2CCCC2)c(=O)[nH]1 [EPZ005687]
inhibition of the Y641 and A677 mutants of EZH2 [1]: can also inhibit

bleomycin
number of γ-H2A.X foci compared to untreated cells (THP-1 cells [2]; 24 hours): markedly increased

CC[C@H](C)n1cc(C)c2c(C(=O)NCc3c(C)cc(C)[nH]c3=O)cc(-c3ccc(N4CCNCC4)nc3)cc21 [GSK126]
apoptosis (Caspase-3/7 activity) [3]: enhanced apoptosis | proliferation of AML cells (DNA content analysis) ([4]; 48 hrs, THP-1 and CD34+ primary AML cells): no effect | differentiation of AML cells (myeloid marker expression) ([4]; 5 days, AML #013 cells): no effect | number of RAD51 foci (DSBs repair) following Doxorubicin-induced DNA damage (THP-1 cells [5]): not diminished | Doxorubicin-induced γ-H2A.X signals (ChIP-seq) (THP-1 cells [6]): increased | DNA damage (γ-H2A.X foci and comet assay) (primary CD34+ AML cells): Higher levels of DNA damage | apoptosis (Caspase-3/7 activity) (THP-1 cells [7]; THP-1, co-treatment GSK-126 (0.5 μM) and Doxorubicin (0.1 μM), 48 hours): enhanced apoptosis | DNA damage/apoptosis induced by treatment with Ara-C only (THP-1 cells [7]; THP-1 cells ex vivo, GSK126 with Ara-C): did not enhance | number and mean fluorescence intensity of γ-H2A.X foci and γ-H2A.X levels (THP-1 cells [2]; co-treatment of GSK126 (5 μM) with bleomycin, Doxorubicin or etoposide, 24 hours, vs cytotoxic agent alone): further increased | DNA damage by comet assay (THP-1 cells [8]): Increased DNA damage | chromatin conformation (H3K27me3 on nascent DNA, CAA) (H3K27me3 in THP-1 cells; GSK126 for 12 hours): switching the chromatin conformation from “closed” to “open” | global levels of H3K27me3 (ChIP-seq) (H3K27me3 in THP-1 cells; GSK126 for 24 hours): marked decrease | chromatin conformation (H3K27me3 on nascent DNA, CAA) [9]: switching the chromatin conformation from “closed” to “open” | Doxorubicin-induced DNA damage (γ-H2A.X foci) [10]: did not increase

COc1cc([C@@H]2c3cc4c(cc3[C@@H](O[C@@H]3O[C@@H]5CO[C@@H](C)O[C@H]5[C@H](O)[C@H]3O)[C@H]3COC(=O)[C@H]23)OCO4)cc(OC)c1O [etoposide]
number of γ-H2A.X foci compared to untreated cells (THP-1 cells [2]; 24 hours): markedly increased

COc1cccc2c1C(=O)c1c(O)c3c(c(O)c1C2=O)C[C@@](O)(C(=O)CO)C[C@@H]3O[C@H]1C[C@H](N)[C@H](O)[C@H](C)O1 [Doxorubicin]
number of γ-H2A.X foci compared to untreated cells (THP-1 cells [2]; 24 hours): markedly increased

CCOC(=O)CCNc1cc(N2CCc3ccccc3CC2)nc(-c2ccccn2)n1 [GSKJ4]
enhancement of Doxorubicin-induced DNA damage (THP-1 cells [2]; THP-1 cells treated with GSKJ4): did not enhance

CCCc1cc(C)[nH]c(=O)c1CNC(=O)c1cc(-c2ccnc(N3CCN(C)CC3)c2)cc2c1cnn2C(C)C [GSK343]
recruitment of ATRIP to sites of DNA damage induced by bleomycin [11]: significantly increased recruitment of ATRIP
